# Assay results published in paper PMC10819767, “An ADAM10 Exosite Inhibitor Is Efficacious in an In Vivo Collagen-Induced Arthritis Model” (Pharmaceuticals, 2024).
# “Also recorded” adds a separate entry of the source.
# What was measured:
# [1] = system: collagen-induced arthritis (CIA) model; assay: CIA mouse model: clinical arthritis score and paw swelling; format: in vivo, C57 BL/6 mice; details: for disease score: scale 0–4
# Protocol: In vivo efficacy in the CIA mouse model. All animal studies were conducted in accordance with NSU IACUC guidelines. Study protocol #2021.04.DM5 was approved by NSU IACUC before the commencement of the studies. CID 3117694 and indomethacin were ground with a small amount of the dispersing agent (0.5% HPMC (3 cP)–0.5% Tween 80) using a mortar and a pestle and mixed repeatedly to form a smooth paste. The paste was moved to a graduated cylinder and filled up to the required volume with the dispersing agent to form a suspension, as described elsewhere. The test compound (10, 30, and 50 mg/kg) and indomethacin (2.5 mg/kg) were administered with a mouse gavage needle (gauge no: 18, BD, catalog number: 653902) through the oral route as a suspension with a 5 mL/kg dose volume (from day 0 to day 28). In this study, 6–8-week-old C57 BL/6 mice from Charles River (male and female) were used. Animals were randomly assigned to one of the following six groups: (1) normal (non-RA control), (2) RA control untreated, (3) RA control treated with 2.5 mg/kg/day indomethacin, and 3 test groups (CID 3117694 (10 mg/kg/day, 30 mg/kg/day, and 50 mg/kg/day)) to provide an estimate for the lead compound’s efficacy range. Each group had three males and three females assigned to the control for gender-based differences. Arthritis was induced in the right paws of the mice under anaesthesia. The left paw of the mice was used as a control. A total of 10 µL collagen from bovine (type II collagen) nasal septum emulsion (2 mg/mL) was injected into the right knee joint with a glass Hamilton syringe and 25 G needles for intraarticular (i.a.) injection, followed by a total of 100 µL Complete Freund’s adjuvant (CFA) emulsion was injected at the back of mice using a syringe with 25 G needles subcutaneously (s.c.). On day 14 after the first injection, the mice were injected, i.e., with 10 µL of collagen from the bovine nasal septum ([…]) and s.c. with a 100 µL CFA emulsion for a boost injection. Arthritis progression was monitored using a clinical arthritis scoring system (0–4), and paw swelling was measured with the help of a plethysmograph on days 0, 14, 21, and 28 after the induction of arthritis. […] After the administration of a primary dose of collagen from the bovine nasal septum, CFA scoring was assessed. Measurements were taken on days 0, 14, 21, and 28 after the induction of arthritis in induced paws (right paw) and non-arthritis paws (left paw). CID 3117694 (10 mg/kg/day, 30 mg/kg/day, and 50 mg/kg/day) and pharmacological control (indomethacin 2.5 mg/kg/day) treatment were given every day for 28 days beginning from day 1 via oral gavage in hydroxy-propyl-methyl cellulose (HPMC) suspension.
# IL-6 = assay: RA serum marker ELISA, IL-6, CIA mice; format: in vivo, C57 BL/6 mice
# Protocol: (§1) The sample size for therapeutic evaluation was calculated using power analysis based on experimental data from similar studies. In a two-sided test and setting the α value at 0.05 and desired power at 0.95, the sample size turned out to be 5 per group. We also expected deaths during the experiments; therefore, we used the formula Nt = N/1-q, where Nt is the number of mice initially used, N is the number required at the end of the study, and q is the proportion of attrition, which is generally 10%. Thus, at the end of the study period, we expected to have data from at least 6 mice per group, which is enough to attain statistical significance if it exists. Data were analyzed using a one-way ANOVA followed by Dunnett’s test compared with the vehicle control. At the end of the study, the mice were anesthetized and sacrificed using CO2 euthanasia. The hind paws of the mice were subjected to a histopathological examination, and the serum was analyzed for CRP, TNF-α, IL-6, and IL-10, as described in the below sections.
# (§2) RA serum marker analysis. Blood was collected from the tail vein, and 100 µL was used for the assays. All assays were conducted using the manufacturer’s instructions for the respective assay kits. The following assay kits were purchased: Mouse TNF-α GENLISA™ ELISA (Krishgen BioSystems cat#KB2145, Mumbai, India), Mouse IL-10 GENLISA™ ELISA (Krishgen BioSystems cat#KB2072), Mouse hsC-Reactive Protein, hs-CRP GENLISA™ ELISA (Krishgen BioSystems cat#KLM0318), Mouse IL-6 GENLISA™ ELISA (Krishgen BioSystems cat#KB2068).
# IL-10 = assay: RA serum marker ELISA, IL-10, CIA mice; format: in vivo, C57 BL/6 mice
# Protocol: as §1, §2
# [2] = system: articular joints affected by RA; assay: Histopathology (H & E) of arthritic joint, CIA mice; format: in vivo, C57 BL/6 mice
# Protocol: as §1, with “sections. Histology. Limbs from euthanized animals were preserved in buffered formalin, decalcified, embedded, sectioned, and stained with hematoxylin and eosin (H & E). Microscopic images were acquired using the Lx 400 microscope (Labomed, Fremont, CA, USA).” for “sections.”
# [3] = Body weight and clinical signs of distress during CIA study; format: in vivo; details: 10, 30, 50 mg/kg oral for 28 days
# Description: Mice were weighed and observed every day, and notes were made on the signs of distress.
# DNA polymerase β = target: DNA polymerase β; design: method as in PubChem AID 485314; details: ref PubChem AID 485314; cited from earlier work
# OPRD1 = system: OPRD1; design: method as in PMID 34817776; details: cited from earlier work
# caspase 8 = system: caspase 8; design: method as in PubChem database; details: ref PubChem database; cited from earlier work
# [4] = CID 3117694 50 mg/kg/day, indomethacin 2.5 mg/kg
# [5] = all tested doses (10, 30, 50 mg/kg), vs vehicle control
compound,measurement,setting,value
COc1cccc(C(=O)NNC(=O)C(=O)Nc2ccc(C)c(Cl)c2)c1 [CID 3117694],paw swelling vs normal control (in words),[1]; 50 mg/kg/day,decreased the swelling to the level of the normal control
same,disease score,"[1]; day 21, 10 mg/kg oral",4
same,disease score,"[1]; day 21, 30 mg/kg oral",three
same,disease score,"[1]; day 21, 50 mg/kg oral",2
same,disease score,"[1]; day 28, 10 mg/kg oral",2
same,disease score,"[1]; day 28, 30 mg/kg oral",2
same,disease score,"[1]; day 28, 50 mg/kg oral",1
same,IL-6 blood level vs healthy control,IL-6; [4],decreased the markers to the level of the healthy control
same,concentration of IL-6 in the blood of arthritic mice,IL-6; [5],lowers
same,IL-10 blood level vs healthy control,IL-10; [4],decreased the markers to the level of the healthy control
same,concentration of IL-10 in the blood of arthritic mice,IL-10; [5],lowers
same,histopathological findings (in words),[2]; 10 mg/kg/day,did not have a pronounced effect on RA markers
same,histopathological findings (in words),[2]; 30 mg/kg/day,reduced erosion but not the rest of the symptoms
same,histopathological findings (in words),[2]; 50 mg/kg/day,significant reduction in RA hallmarks in most samples; also recorded: healthy bone and cartilage similar to the healthy controls
same,body weight vs vehicle control,[3],no significant differences in body weight
same,clinical signs of distress,[3],no clinical signs of distress
same,IC50,DNA polymerase β,79 µM
same,activity against OPRD1,OPRD1,inactive
same,effect on caspase 8 activity,caspase 8,does not affect
